Data as given in patent US11000033B2, “Ketone or oxime compound, and herbicide” (NISSAN CHEMICAL CORPORATION, priority 2014, dated 2021).

How the values were obtained:
Format in all cases: in vivo
beet = assay: Test Example 5: effect on crop by foliage application, plastic box (symbol f); conditions: 320 g/ha, 3 weeks after application
How it was run: (§1)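 Greenhouse test at 25° C. to 30° C. Seeds of crops and weeds were spot-sown in boxes of sterilized diluvial soil under roughly 1.5 cm soil cover, then grown for foliage treatment.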

Leptochloa chinensis = assay: Test Example 3: herbicidal effect by foliage application, Wagner pot (symbol D); conditions: application herbicide amount 320 g/ha
How it was run: (§2)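 Foliar spray of a water-diluted emulsion at a predetermined herbicide amount, applied to 14-day-old plants. Seedlings were raised in flooded alluvial soil (0.1–0.5 cm water) at 25–30 °C in a greenhouse. Injury was rated after 3 weeks against fixed criteria.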

corn = assay: Test Example 5: effect on crop by foliage application, plastic box (symbol c); conditions: 320 g/ha, 3 weeks after application
How it was run: as §1

Setaria viridis = assay: Test Example 5: herbicidal effect by foliage application, plastic box (symbol G); conditions: 320 g/ha, 3 weeks after application
How it was run: (§3)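 Seeds were sown in sterilized diluvial soil, covered with about 1.5 cm of soil and grown 14 days in a greenhouse at 25° C. to 30° C. An emulsifiable formulation diluted in water to a set rate was sprayed over foliage, and injury was scored 3 weeks later.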

Chenopodium album = assay: Test Example 5: herbicidal effect by foliage application, plastic box (symbol O); conditions: 320 g/ha, 3 weeks after application
How it was run: as §3

rapeseed = assay: Test Example 5: effect on crop by foliage application, plastic box (symbol g); conditions: 320 g/ha, 3 weeks after application
How it was run: as §1

[1] = test system: Echinochloa crus-galli var. crus-galli; assay: Test Example 3: herbicidal effect by foliage application, Wagner pot (symbol H); conditions: application herbicide amount 320 g/ha
How it was run: as §2

Galium spurium = assay: Test Example 5: herbicidal effect by foliage application, plastic box (symbol Q); conditions: 320 g/ha, 3 weeks after application
From the text: Herbicidal Effect Test by Foliage Application
Sterilized diluvial soil was placed in a plastic box having a length of 21 cm, a width of 13 cm, and a depth of 7 cm. Each of the seeds of Digitaria ciliaris, Setaria viridis, Echinochloa crus-galli var. crus-galli, Avena fatua, Alopecurus myosuroides, Lolium multiflorum Lam., Apera spica-venti, Abutilon theophrasti, Amaranthus retroflexus, Chenopodium album, Stellaria media, Galium spurium, Veronica persica, corn, soybean, rice plant, wheat, beet, and rapeseed was sowed in a spot-like manner and was covered with the soil of a thickness of about 1.5 cm. Thereafter, the plants were grown in the greenhouse of 25° C. to 30° C. After the plants were grown for 14 days, the emulsion agent of the compound of the present invention prepared in accordance with Formulation Example 2 was diluted with water so as to be a predetermined herbicide amount and the diluted emulsion agent was uniformly applied to a foliage part with a small-size spray. 3 weeks later from the herbicide application, the effect to each plant was investigated in accordance with the criteria of Test Example 1.

Stellaria media = assay: Test Example 5: herbicidal effect by foliage application, plastic box (symbol P); conditions: 320 g/ha, 3 weeks after application
How it was run: as §3

soybean = assay: Test Example 5: effect on crop by foliage application, plastic box (symbol d); conditions: 320 g/ha, 3 weeks after application
How it was run: as §1

Lolium multiflorum Lam. = assay: Test Example 5: herbicidal effect by foliage application, plastic box (symbol K); conditions: 320 g/ha, 3 weeks after application
How it was run: as §3

Avena fatua = assay: Test Example 5: herbicidal effect by foliage application, plastic box (symbol I); conditions: 320 g/ha, 3 weeks after application
How it was run: as §3

Cyperus difformis = assay: Test Example 3: herbicidal effect by foliage application, Wagner pot (symbol E); conditions: application herbicide amount 320 g/ha
How it was run: as §2

Abutilon theophrasti = assay: Test Example 5: herbicidal effect by foliage application, plastic box (symbol M); conditions: 320 g/ha, 3 weeks after application
How it was run: as §3

Digitaria ciliaris = assay: Test Example 5: herbicidal effect by foliage application, plastic box (symbol F); conditions: 320 g/ha, 3 weeks after application
How it was run: as §3

Apera spica-venti = assay: Test Example 5: herbicidal effect by foliage application, plastic box (symbol L); conditions: 320 g/ha, 3 weeks after application
How it was run: as §3

wheat = assay: Test Example 5: effect on crop by foliage application, plastic box (symbol e); conditions: 320 g/ha, 3 weeks after application
How it was run: as §1

[2] = test system: Echinochloa crus-galli var. crus-galli; assay: Test Example 5: herbicidal effect by foliage application, plastic box (symbol H); conditions: 320 g/ha, 3 weeks after application
How it was run: as §3

Amaranthus retroflexus = assay: Test Example 5: herbicidal effect by foliage application, plastic box (symbol N); conditions: 320 g/ha, 3 weeks after application
How it was run: as §3

rice plant = assay: Test Example 5: effect on crop by foliage application, plastic box (symbol b); conditions: 320 g/ha, 3 weeks after application
How it was run: as §1

[3] = test system: directly sowed rice plant; assay: Test Example 3: effect on crop by foliage application, Wagner pot (symbol b); conditions: application herbicide amount 320 g/ha
How it was run: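 Alluvial soil in a 1/10000-are Wagner pot was flooded to a water depth of 0.1–0.5 cm. Echinochloa crus-galli var. crus-galli, Leptochloa chinensis, Cyperus difformis and rice were sown into it and grown in a greenhouse at 25–30 °C.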

Veronica persica = assay: Test Example 5: herbicidal effect by foliage application, plastic box (symbol R); conditions: 320 g/ha, 3 weeks after application
How it was run: as §3

Alopecurus myosuroides = assay: Test Example 5: herbicidal effect by foliage application, plastic box (symbol J); conditions: 320 g/ha, 3 weeks after application
How it was run: as §3

## CCOC(=O)C(C(=O)C(C)C)C1CC(O)=C(c2c(C)cc(Br)cc2C)C1=O (mixture of isomers) [10-001]
beet
  f: beet, effect on crop grade: 0 (Herbicidal ratio of 5% or lower (almost no effect))
Leptochloa chinensis; Table 24
  D (Leptochloa chinensis) herbicidal effect grade: 4 (Herbicidal ratio of 70% or higher and lower than 90%)
corn
  c: corn, effect on crop grade: 1 (Herbicidal ratio of 5% or higher and lower than 20%)
Setaria viridis
  G: Setaria viridis, herbicidal effect grade: 2 (Herbicidal ratio of 20% or higher and lower than 40%)
Chenopodium album
  O: Chenopodium album, herbicidal effect grade: 0 (Herbicidal ratio of 5% or lower (almost no effect))
rapeseed
  g: rapeseed, effect on crop grade: 0 (Herbicidal ratio of 5% or lower (almost no effect))
[1]; Table 24
  H (Echinochloa crus-galli var. crus-galli) herbicidal effect grade: 5 (Herbicidal ratio of 90% or more (almost completely withered))
Galium spurium
  Q: Galium spurium, herbicidal effect grade: 0 (Herbicidal ratio of 5% or lower (almost no effect))
Stellaria media
  P: Stellaria media, herbicidal effect grade: 0 (Herbicidal ratio of 5% or lower (almost no effect))
soybean
  d: soybean, effect on crop grade: 0 (Herbicidal ratio of 5% or lower (almost no effect))
Lolium multiflorum Lam.
  K: Lolium multiflorum Lam., herbicidal effect grade: 3 (Herbicidal ratio of 40% or higher and lower than 70%)
Avena fatua
  I: Avena fatua, herbicidal effect grade: 1 (Herbicidal ratio of 5% or higher and lower than 20%)
Cyperus difformis; Table 24
  E herbicidal effect grade: 0 (Herbicidal ratio of 5% or lower (almost no effect))
Abutilon theophrasti
  M: Abutilon theophrasti, herbicidal effect grade: 0 (Herbicidal ratio of 5% or lower (almost no effect))
Digitaria ciliaris
  F: Digitaria ciliaris, herbicidal effect grade: 3 (Herbicidal ratio of 40% or higher and lower than 70%)
Apera spica-venti
  L: Apera spica-venti, herbicidal effect grade: 0 (Herbicidal ratio of 5% or lower (almost no effect))
wheat
  e: wheat, effect on crop grade: 0 (Herbicidal ratio of 5% or lower (almost no effect))
[2]
  H: Echinochloa crus-galli var. crus-galli, herbicidal effect grade: 4 (Herbicidal ratio of 70% or higher and lower than 90%)
Amaranthus retroflexus
  N: Amaranthus retroflexus, herbicidal effect grade: 0 (Herbicidal ratio of 5% or lower (almost no effect))
Rice plant
  b: directly sowed rice plant, effect on crop grade: 2 (Herbicidal ratio of 20% or higher and lower than 40%)
[3]; Table 24
  b (directly sowed rice plant) effect on crop grade: 3 (Herbicidal ratio of 40% or higher and lower than 70%)
Veronica persica
  R: Veronica persica, herbicidal effect grade: 0 (Herbicidal ratio of 5% or lower (almost no effect))
Alopecurus myosuroides
  J: Alopecurus myosuroides, herbicidal effect grade: 1 (Herbicidal ratio of 5% or higher and lower than 20%)

## CC(CC1CC(O)=C(c2c(C)cc(C)cc2C)C1=O)=NOCCN (stereo not drawn) [1-132]
beet
  f: beet, effect on crop (criteria 0-5): 0 (Herbicidal ratio of 5% or lower (almost no effect))
Leptochloa chinensis
  herbicidal effect on D (Leptochloa chinensis), grade 0-5: 1 (Herbicidal ratio of 5% or higher and lower than 20%)
corn
  c: corn, effect on crop (criteria 0-5): 0 (Herbicidal ratio of 5% or lower (almost no effect))
Setaria viridis
  G: Setaria viridis, herbicidal effect (criteria 0-5): 0 (Herbicidal ratio of 5% or lower (almost no effect))
Chenopodium album
  O: Chenopodium album, herbicidal effect (criteria 0-5): 0 (Herbicidal ratio of 5% or lower (almost no effect))
rapeseed
  g: rapeseed, effect on crop (criteria 0-5): 3 (Herbicidal ratio of 40% or higher and lower than 70%)
[1]
  herbicidal effect on H (Echinochloa crus-galli var. crus-galli), grade 0-5: 2 (Herbicidal ratio of 20% or higher and lower than 40%)
Galium spurium
  Q: Galium spurium, herbicidal effect (criteria 0-5): 0 (Herbicidal ratio of 5% or lower (almost no effect))
Stellaria media
  P: Stellaria media, herbicidal effect (criteria 0-5): 0 (Herbicidal ratio of 5% or lower (almost no effect))
soybean
  d: soybean, effect on crop (criteria 0-5): 0 (Herbicidal ratio of 5% or lower (almost no effect))
Lolium multiflorum Lam.
  K: Lolium multiflorum Lam., herbicidal effect (criteria 0-5): 3 (Herbicidal ratio of 40% or higher and lower than 70%)
Avena fatua
  I: Avena fatua, herbicidal effect (criteria 0-5): 1 (Herbicidal ratio of 5% or higher and lower than 20%)
Cyperus difformis
  herbicidal effect on E, grade 0-5: 0 (Herbicidal ratio of 5% or lower (almost no effect))
Abutilon theophrasti
  M: Abutilon theophrasti, herbicidal effect (criteria 0-5): 0 (Herbicidal ratio of 5% or lower (almost no effect))
Digitaria ciliaris
  F: Digitaria ciliaris, herbicidal effect (criteria 0-5): 0 (Herbicidal ratio of 5% or lower (almost no effect))
Apera spica-venti
  L: Apera spica-venti, herbicidal effect (criteria 0-5): 1 (Herbicidal ratio of 5% or higher and lower than 20%)
wheat
  e: wheat, effect on crop (criteria 0-5): 0 (Herbicidal ratio of 5% or lower (almost no effect))
[2]
  H: Echinochloa crus-galli var. crus-galli, herbicidal effect (criteria 0-5): 0 (Herbicidal ratio of 5% or lower (almost no effect))
Amaranthus retroflexus
  N: Amaranthus retroflexus, herbicidal effect (criteria 0-5): 0 (Herbicidal ratio of 5% or lower (almost no effect))
Rice plant
  b: directly sowed rice plant, effect on crop (criteria 0-5): 1 (Herbicidal ratio of 5% or higher and lower than 20%)
[3]
  effect on crop b (directly sowed rice plant), grade 0-5: 1 (Herbicidal ratio of 5% or higher and lower than 20%)
Veronica persica
  R: Veronica persica, herbicidal effect (criteria 0-5): 0 (Herbicidal ratio of 5% or lower (almost no effect))
Alopecurus myosuroides
  J: Alopecurus myosuroides, herbicidal effect (criteria 0-5): 2 (Herbicidal ratio of 20% or higher and lower than 40%)

## CON=C(C)CC1CC(OC)=C(c2c(C)cc(C=Cc3ccccc3)cc2C)C1=O (stereo not drawn) [6-068]
beet
  f: beet, effect on crop (criteria of Test Example 1): 0 (Herbicidal ratio of 5% or lower (almost no effect))
Leptochloa chinensis
  herbicidal effect on D (Leptochloa chinensis), grade 0-5: 2 (Herbicidal ratio of 20% or higher and lower than 40%)
corn
  c: corn, effect on crop (criteria of Test Example 1): 4 (Herbicidal ratio of 70% or higher and lower than 90%)
Setaria viridis
  G: Setaria viridis, herbicidal effect (criteria of Test Example 1): 3 (Herbicidal ratio of 40% or higher and lower than 70%)
Chenopodium album
  O: Chenopodium album, herbicidal effect (criteria of Test Example 1): 0 (Herbicidal ratio of 5% or lower (almost no effect))
rapeseed
  g: rapeseed, effect on crop (criteria of Test Example 1): 2 (Herbicidal ratio of 20% or higher and lower than 40%)
[1]
  herbicidal effect on H (Echinochloa crus-galli var. crus-galli), grade 0-5: 0 (Herbicidal ratio of 5% or lower (almost no effect))
Galium spurium
  Q: Galium spurium, herbicidal effect (criteria of Test Example 1): 0 (Herbicidal ratio of 5% or lower (almost no effect))
Stellaria media
  P: Stellaria media, herbicidal effect (criteria of Test Example 1): 2 (Herbicidal ratio of 20% or higher and lower than 40%)
soybean
  d: soybean, effect on crop (criteria of Test Example 1): 0 (Herbicidal ratio of 5% or lower (almost no effect))
Lolium multiflorum Lam.
  K: Lolium multiflorum Lam., herbicidal effect (criteria of Test Example 1): 0 (Herbicidal ratio of 5% or lower (almost no effect))
Avena fatua
  I: Avena fatua, herbicidal effect (criteria of Test Example 1): 0 (Herbicidal ratio of 5% or lower (almost no effect))
Cyperus difformis
  herbicidal effect on E, grade 0-5: 0 (Herbicidal ratio of 5% or lower (almost no effect))
Abutilon theophrasti
  M: Abutilon theophrasti, herbicidal effect (criteria of Test Example 1): 0 (Herbicidal ratio of 5% or lower (almost no effect))
Digitaria ciliaris
  F: Digitaria ciliaris, herbicidal effect (criteria of Test Example 1): 0 (Herbicidal ratio of 5% or lower (almost no effect))
Apera spica-venti
  L: Apera spica-venti, herbicidal effect (criteria of Test Example 1): 0 (Herbicidal ratio of 5% or lower (almost no effect))
wheat
  e: wheat, effect on crop (criteria of Test Example 1): 0 (Herbicidal ratio of 5% or lower (almost no effect))
[2]
  H: Echinochloa crus-galli var. crus-galli, herbicidal effect (criteria of Test Example 1): 3 (Herbicidal ratio of 40% or higher and lower than 70%)
Amaranthus retroflexus
  N: Amaranthus retroflexus, herbicidal effect (criteria of Test Example 1): 0 (Herbicidal ratio of 5% or lower (almost no effect))
Rice plant
  b: directly sowed rice plant, effect on crop (criteria of Test Example 1): 1 (Herbicidal ratio of 5% or higher and lower than 20%)
[3]
  effect on crop b (directly sowed rice plant), grade 0-5: 0 (Herbicidal ratio of 5% or lower (almost no effect))
Veronica persica
  R: Veronica persica, herbicidal effect (criteria of Test Example 1): 0 (Herbicidal ratio of 5% or lower (almost no effect))
Alopecurus myosuroides
  J: Alopecurus myosuroides, herbicidal effect (criteria of Test Example 1): 0 (Herbicidal ratio of 5% or lower (almost no effect))
